From US20240400577A1, “MODULATORS OF PROTEIN KINASES” (VIBLIOME THERAPEUTICS, LLC, priority 2021, published 2024)
pIC50: −log10 of the molar value.

Columns and labels:
AXL = target: T1, AXL (Homo sapiens, UniProt P30530); experiment: Kinase panel enzymatic inhibition assay (Nanosyn); assay type: biochemical; conditions: ATP at Km; 30-minute pre-incubation; read-out: kinase inhibition in terms of IC50, AXL
T1 construct: Nanosyn (contract laboratory that ran the panel)
T1 sequence (P30530 26-894): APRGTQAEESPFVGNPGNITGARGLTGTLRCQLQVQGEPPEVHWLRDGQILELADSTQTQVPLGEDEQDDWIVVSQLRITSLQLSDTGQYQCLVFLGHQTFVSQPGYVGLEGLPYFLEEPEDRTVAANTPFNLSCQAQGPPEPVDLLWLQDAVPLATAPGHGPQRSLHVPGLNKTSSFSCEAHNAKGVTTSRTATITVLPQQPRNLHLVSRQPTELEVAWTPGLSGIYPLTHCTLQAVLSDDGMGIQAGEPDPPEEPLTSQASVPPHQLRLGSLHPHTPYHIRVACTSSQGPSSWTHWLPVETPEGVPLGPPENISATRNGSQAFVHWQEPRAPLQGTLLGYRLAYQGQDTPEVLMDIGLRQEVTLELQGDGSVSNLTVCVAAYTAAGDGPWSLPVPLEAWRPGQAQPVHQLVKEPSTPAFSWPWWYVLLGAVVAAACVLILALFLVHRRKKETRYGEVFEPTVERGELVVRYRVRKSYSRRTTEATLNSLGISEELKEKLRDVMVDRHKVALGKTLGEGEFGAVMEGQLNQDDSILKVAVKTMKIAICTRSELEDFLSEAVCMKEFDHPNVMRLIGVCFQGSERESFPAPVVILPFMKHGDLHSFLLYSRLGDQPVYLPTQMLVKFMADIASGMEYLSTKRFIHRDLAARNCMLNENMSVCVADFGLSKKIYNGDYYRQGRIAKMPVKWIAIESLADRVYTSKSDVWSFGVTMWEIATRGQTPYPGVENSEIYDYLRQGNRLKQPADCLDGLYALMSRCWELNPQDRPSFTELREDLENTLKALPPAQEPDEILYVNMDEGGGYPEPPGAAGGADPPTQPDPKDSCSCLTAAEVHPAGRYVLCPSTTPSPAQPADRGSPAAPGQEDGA
How it was run: (§1)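 Read-out is percent inhibition or IC50, obtained by mobility shift, ADP detection or time-resolved fluorescence detection. Each kinase was run with ATP at its Km, and compound at 5 μM was pre-incubated for 30 minutes.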

JAK3 = target: T2, JAK3 (Homo sapiens, UniProt P52333); experiment: Kinase panel enzymatic inhibition assay (Nanosyn); assay type: biochemical; conditions: ATP at Km; 30-minute pre-incubation; read-out: kinase inhibition in terms of IC50, JAK3
T2 construct: Nanosyn (contract laboratory that ran the panel)
T2 sequence (P52333 1-1124): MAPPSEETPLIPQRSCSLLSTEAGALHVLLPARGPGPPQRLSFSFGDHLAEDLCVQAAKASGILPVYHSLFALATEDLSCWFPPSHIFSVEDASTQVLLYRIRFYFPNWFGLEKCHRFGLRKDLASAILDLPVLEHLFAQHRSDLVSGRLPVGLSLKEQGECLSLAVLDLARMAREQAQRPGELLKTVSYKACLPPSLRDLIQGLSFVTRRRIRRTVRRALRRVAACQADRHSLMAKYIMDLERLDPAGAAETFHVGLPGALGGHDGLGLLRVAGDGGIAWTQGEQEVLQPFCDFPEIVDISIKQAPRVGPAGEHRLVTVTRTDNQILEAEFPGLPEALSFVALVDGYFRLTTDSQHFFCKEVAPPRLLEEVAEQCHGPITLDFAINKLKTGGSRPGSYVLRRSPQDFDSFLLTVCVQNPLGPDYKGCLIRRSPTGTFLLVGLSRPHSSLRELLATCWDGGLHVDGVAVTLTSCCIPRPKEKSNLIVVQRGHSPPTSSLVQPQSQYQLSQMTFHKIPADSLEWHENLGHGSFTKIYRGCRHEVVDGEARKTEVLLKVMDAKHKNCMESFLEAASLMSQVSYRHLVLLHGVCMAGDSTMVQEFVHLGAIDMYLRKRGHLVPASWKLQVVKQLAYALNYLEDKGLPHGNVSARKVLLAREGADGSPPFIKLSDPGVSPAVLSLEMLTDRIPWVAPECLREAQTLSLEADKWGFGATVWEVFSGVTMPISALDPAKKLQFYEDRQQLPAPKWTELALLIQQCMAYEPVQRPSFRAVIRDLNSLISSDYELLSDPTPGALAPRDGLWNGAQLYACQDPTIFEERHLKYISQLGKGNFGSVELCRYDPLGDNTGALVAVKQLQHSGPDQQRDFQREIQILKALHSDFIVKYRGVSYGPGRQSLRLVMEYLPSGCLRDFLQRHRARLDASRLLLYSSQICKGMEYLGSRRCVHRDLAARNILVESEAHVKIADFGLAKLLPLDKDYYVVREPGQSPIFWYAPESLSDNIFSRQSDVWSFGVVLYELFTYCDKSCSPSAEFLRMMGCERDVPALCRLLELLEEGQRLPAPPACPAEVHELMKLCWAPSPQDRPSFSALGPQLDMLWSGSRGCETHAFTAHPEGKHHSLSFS
How it was run: as §1

| pIC50 (AXL) | pIC50 (JAK3) | Structure (SMILES) |
| --- | --- | --- |
| > 6.30 | ≤ 5.00 | COc1cc2nccc(Oc3ccc(NC(=O)c4cc(S(C)(=O)=O)n(-c5ccc(F)cc5)n4)c(F)c3)c2cc1OC [Ex71, N-(4-((6,7-dimethoxyquinolin-4-yl)oxy)-2-fluorophenyl)-1-(4-fluorophenyl)-5-(methylsulfonyl)-1H-pyrazole-3-carboxamide] |
| > 6.30 | ≤ 5.00 | COc1cc2nccc(Oc3ccc(NC(=O)c4cc(S(C)(=O)=O)n(-c5ccc(F)cc5)n4)cc3)c2cc1OC [Ex72, N-(4-((6,7-dimethoxyquinolin-4-yl)oxy)phenyl)-1-(4-fluorophenyl)-5-(methylsulfonyl)-1H-pyrazole-3-carboxamide] |
| > 6.30 | ≤ 5.00 | COc1cc2nccc(Oc3ccc(NC(=O)c4cc(S(C)(=O)=O)n(-c5ccc(F)cc5)n4)cc3F)c2cc1OC [Ex73, N-(4-((6,7-dimethoxyquinolin-4-yl)oxy)-3-fluorophenyl)-1-(4-fluorophenyl)-5-(methylsulfonyl)-1H-pyrazole-3-carboxamide] |
